Source: patent US9242933B2 (AbbVie Deutschland GmbH & Co. KG, priority 2007, dated 2016)

Target: T1, human mGlu2 receptor (Homo sapiens, UniProt Q14416)
T1 construct: expressed in transfected cells; host or cells: HEK293
Assay: FLIPR intracellular Ca2+ assay, potentiation of glutamate response in HEK293 clone expressing mGlu2 receptor, rGLAST and Galpha16
Assay type: cell-based
Settings: 1 μM glutamate added ten minutes after test compound, HEK293 cells with human mGlu2, rGLAST, Galpha16, read-out: EC50 values of potentiation effect to glutamate
Excerpt: The compounds of the present invention can be tested e.g. by evaluating intracellular Ca^2+ concentrations in cells permanently expressing human mGlu receptor, the rat glutamate transporter rGLAST and the Galpha16 subunit of the G-protein complex under standard conditions in a fluorometric imaging plate reader (FLIPR, Molecular Devices, Union City, Calif. 94587, USA) by measuring the response of the cells to a test compound in the absence of presence of glutamate. The FLIPR assay is a common functional assay to monitor native or recombinant Galphaq-coupled receptors, and native or recombinant receptors normally linked to other G-protein signalling cascades, which are coupled to calcium through co-expression of an alpha subunit of a promiscuous or chimeric G-protein. In the assay the increase of intracellular calcium is measured through a calcium-dependent fluorescent dye (e.g. Fluo-4 AM) in the FLIPR instrument.
For the purpose of the present study, a cell line permanently expressing a human mGlu receptor, such as the mGlu2 receptor, the rat glutamate transporter rGLAST and the GalphaG16 may be generated by transfection as described in the examples. For selection of a suitable cell clone and also the subsequent measurements, the selected clone the cells will be plated on suitable multiwell plates in a suitable medium (e.g. DMEM Glutamax (GIBCO #21885-025)/10% dialyzed FCS). Cells may be selected by gentamycin treatment as described in the examples. Cells will then be loaded with a suitable Ca^2+ sensitive fluorescence dye, e.g. with 2 μM Fluo-4 AM (Molecular Probes, F14201). Cells will then be washed with a suitable buffer (e.g. HEPES) and the thus treated plates will be measured in a fluorometric imaging plate reader (e.g. FLIPR, Molecular Devices, Union City, Calif. 94587, USA).
The compounds of the present invention were tested in the above-described FLIPR assay using the selected cell clone. Increased intracellular calcium levels were quantified following addition of test compound (agonism), as well as following addition of a submaximal concentration of glutamate (potentiation).
For the determination of the effect of the test compound by itself (agonism) or by increasing the response to a submaximal concentration (e.g. 1 μM) of glutamate (potentiation), the resulting signal is determined by subtraction of the background fluorescence from the maximal fluorescent peak height of the respective response. In the FLIPR instrument the compound is given to the cell and its fluorescence response quantified by the FLIPR instrument (agonism). The concentration at which the compound exerts half its maximal effect is named the ‘effective concentration 50’ or ‘EC50’. The maximal effect induced by the test substance is normalized to the maximal effect exerted by 100 μM glutamate (set at 100%).
After addition of the test compound to the plate, a submaximal concentration of glutamate (e.g. 1 μM glutamate) will be added. A potentiator enhances the response of the receptor to glutamate. The response to glutamate in the presence of test compound is quantified. The concentration at which the test compound is able to exert half its maximal potentiation effect to glutamate is named the ‘EC50’. The maximal response to the submaximal concentration of glutamate (e.g. 1 micromolar glutamate) in the presence of test compound is normalized to the maximal effect exerted by 100 micromolar glutamate (set at 100%). Least squares curve fitting with a four-parameter equation is then applied to the resulting dose-response curve to determine the resulting EC5O values (Graph Pad Prism).
For the purpose of the present study, a cell line permanently expressing the human mGlu2 receptor, the rat glutamate transporter rGLAST and the alpha subunit of G16 was generated by transfection. […]

T1 sequence (Q14416 19-872): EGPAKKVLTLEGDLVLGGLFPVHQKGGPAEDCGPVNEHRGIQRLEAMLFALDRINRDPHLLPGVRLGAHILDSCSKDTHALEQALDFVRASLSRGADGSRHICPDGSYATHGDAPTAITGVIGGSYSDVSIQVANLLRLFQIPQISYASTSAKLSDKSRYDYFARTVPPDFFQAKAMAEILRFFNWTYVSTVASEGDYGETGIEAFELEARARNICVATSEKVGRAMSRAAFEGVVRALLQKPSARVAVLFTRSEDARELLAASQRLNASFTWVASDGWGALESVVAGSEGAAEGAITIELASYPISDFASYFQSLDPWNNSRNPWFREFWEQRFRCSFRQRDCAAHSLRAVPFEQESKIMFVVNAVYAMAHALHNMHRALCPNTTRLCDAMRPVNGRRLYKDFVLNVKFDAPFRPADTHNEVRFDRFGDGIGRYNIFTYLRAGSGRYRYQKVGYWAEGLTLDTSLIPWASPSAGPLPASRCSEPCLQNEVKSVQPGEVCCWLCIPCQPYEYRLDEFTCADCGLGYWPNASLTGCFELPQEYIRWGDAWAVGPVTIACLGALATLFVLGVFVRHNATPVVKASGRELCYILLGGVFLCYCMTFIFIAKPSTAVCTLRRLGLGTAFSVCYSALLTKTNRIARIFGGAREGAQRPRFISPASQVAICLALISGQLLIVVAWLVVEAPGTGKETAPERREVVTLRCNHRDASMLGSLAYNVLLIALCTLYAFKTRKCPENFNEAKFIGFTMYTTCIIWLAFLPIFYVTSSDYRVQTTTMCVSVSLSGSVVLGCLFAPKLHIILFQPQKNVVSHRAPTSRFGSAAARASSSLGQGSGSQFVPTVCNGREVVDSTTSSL

Row | EC50 [nM] | Compound
1 | 1000 to 10000 | CCCC(=O)c1ccc(NCc2ccc(CC)s2)cc1 [Example 9, 1-{4-[(5-Ethylthiophen-2-ylmethyl)amino]phenyl}butan-1-one]
2 | 1000 to 10000 | CCCC(=O)c1ccc(NCc2cccnc2)cc1 [Example 16, 1-{4-[(Pyridin-3-ylmethyl)amino]phenyl}butan-1-one]
3 | 1000 to 10000 | CCCC(=O)c1ccc(NCc2ccc(COC(C)=O)o2)cc1 [Example 23, Acetic acid 5-[(4-butyrylphenylamino)methyl]furan-2-ylmethyl ester]
4 | < 1000 | CCCC(=O)c1ccc(NCc2c[nH]nc2-c2cccs2)cc1 [Example 40, 1-(4-{[3-(Thiophen-2-yl)-1H-pyrazol-4-ylmethyl]amino}phenyl)butan-1-one]
5 | < 1000 | CCCC(=O)c1ccc(NCc2c[nH]nc2-c2ccc(C(F)(F)F)cc2)cc1 [Example 42]
6 | 1000 to 10000 | CCCC(=O)c1ccc(NCc2cnn(-c3ccccc3)c2C)cc1 [Example 45, 1-{4-[(5-Methyl-1-phenyl-1H-pyrazol-4-ylmethyl)amino]phenyl}butan-1-one]
7 | 1000 to 10000 | CCCC(=O)c1ccc(NCc2csc(-c3ccccc3)n2)cc1 [Example 46, 1-{4-[(2-Phenylthiazol-4-ylmethyl)amino]phenyl}butan-1-one]
8 | 1000 to 10000 | CCCC(=O)c1ccc(NCc2c(C)nn(C)c2Oc2ccc(Cl)cc2)cc1 [Example 49, 1-(4-{[5-(4-Chlorophenoxy)-1,3-dimethyl-1H-pyrazol-4-ylmethyl]amino}phenyl)butan-1-one]
9 | 1000 to 10000 | CCCC(=O)c1ccc(NCc2c(C)nn(C)c2Oc2cccc(Cl)c2)cc1 [Example 50, 1-(4-{[5-(3-Chlorophenoxy)-1,3-dimethyl-1H-pyrazol-4-ylmethyl]amino}phenyl)butan-1-one]
10 | 1000 to 10000 | CCCC(=O)c1ccc(NCc2c(C)nn(-c3ccccc3)c2C)cc1 [Example 56, 1-{4-[(3,5-Dimethyl-1-phenyl-1H-pyrazol-4-ylmethyl)amino]phenyl}butan-1-one]
11 | 1000 to 10000 | CCCC(=O)c1ccc(NCc2ccnn2-c2ccccc2)cc1 [Example 57, 1-{4-[(2-Phenyl-2H-pyrazol-3-ylmethyl)amino]phenyl}butan-1-one]
12 | 1000 to 10000 | CCCC(=O)c1ccc(NCc2c(C)nn(C(C)(C)C)c2C)cc1 [Example 58, 1-{4-[(1-tert-Butyl-3,5-dimethyl-1H-pyrazol-4-ylmethyl)amino]phenyl)butan-1-one]
13 | 1000 to 10000 | CCCC(=O)c1ccc(NCc2cnn(CCC)c2C)cc1 [Example 71]
14 | < 1000 | CCCC(=O)c1ccc(NCc2cnn(C)c2-c2ccccc2)cc1 [Example 73]
15 | 1000 to 10000 | CCCC(=O)c1ccc(NCc2cnn(C(C)C)c2)cc1 [Example 75, 1-{4-[(1-Isopropyl-1H-pyrazol-4-ylmethyl)amino]phenyl}butan-1-one]
16 | 1000 to 10000 | O=C1CCc2cc(NCc3c[nH]nc3-c3ccc(C(F)(F)F)cc3)ccc21 [Example 81, 5-{[3-(4-Trifluoromethylphenyl)-1H-pyrazol-4-ylmethyl]-amino}-indan-1-one]
17 | 1000 to 10000 | CC(C)(C)c1n[nH]cc1CNc1ccc2c(c1)OCO2 [Example 117, Benzo[1,3]dioxol-5-yl-(3-tert-butyl-1H-pyrazol-4-ylmethyl)-amine]
18 | 1000 to 10000 | CN(C)S(=O)(=O)c1ccc(NCc2c[nH]nc2-c2ccc(C(F)(F)F)cc2)cc1 [Example 169, N,N-Dimethyl-4-{[3-(4-trifluoromethyl-phenyl)-1H-pyrazol-4-ylmethyl]-amino}-benzenesulfonamide]

Further lines, the compound ahead of its results:

Row | Compound | EC50 [nM]
19 | 2-Propyl-6-{[3-(4-trifluoromethyl-phenyl)-1H-pyrazol-4-ylmethyl]-amino}-2,3-dihydro-isoquinolin-1-one [Example 584] | < 1000
20 | CCCC(=O)c1ccc(NCc2ccco2)cc1 [Example 13, 1-{4-[(Furan-2-ylmethyl)amino]phenyl}butan-1-one] | 1000 to 10000
21 | CCCC(=O)c1ccc(NCc2ccc3ncccc3c2)cc1 [Example 25, 1-{4-[(Quinolin-6-ylmethyl)amino]phenyl}butan-1-one] | 1000 to 10000
22 | CCCC(=O)c1ccc(NCc2ccc(-c3ccc(S(N)(=O)=O)cc3)o2)cc1 [Example 35, 4-{5-[(4-Butyrylphenylamino)methyl]furan-2-yl}benzenesulfonamide] | 1000 to 10000
23 | CCCC(=O)c1ccc(NCc2cnccc2-c2cccc(Br)c2)cc1 [Example 37, 1-(4-{[4-(3-Bromophenyl)pyridin-3-ylmethyl]amino}phenyl)butan-1-one] | 1000 to 10000
24 | CCCC(=O)c1ccc(NCc2c(-c3ccccc3)noc2C)cc1 [Example 43, 1-{4-[(5-Methyl-3-phenylisoxazol-4-ylmethyl)amino]phenyl}butan-1-one] | 1000 to 10000
25 | CCCC(=O)c1ccc(NCc2c(CSc3ccccc3)nn(C)c2Cl)cc1 [Example 52, 1-(4-{[5-Chloro-1-methyl-3-(phenylthiomethyl)-1H-pyrazol-4-ylmethyl]amino}phenyl)butan-1-one] | 1000 to 10000
26 | CCCC(=O)c1ccc(NCc2c(C(F)(F)F)nn(C)c2Cl)cc1 [Example 53, 1-(4-{[5-Chloro-1-methyl-3-(trifluoromethyl)-1H-pyrazol-4-yl]methylamino}phenyl)butan-1-one] | 1000 to 10000
27 | CCCC(=O)c1ccc(NCc2cnn(CC)c2C)cc1 [Example 55, 1-{4-[(1-Ethyl-5-methyl-1H-pyrazol-4-ylmethyl)amino]phenyl}butan-1-one] | 1000 to 10000
28 | CCCC(=O)c1ccc(NCc2cnn(C)c2C)cc1 [Example 60, 1-{4-[(1,5-Dimethyl-1H-pyrazol-4-ylmethyl)amino]phenyl}butan-1-one] | 1000 to 10000
29 | CCCC(=O)c1ccc(NCc2cn[nH]c2)cc1 [Example 68, 1-{4-[(1H-Pyrazol-4-ylmethyl)amino]phenyl}butan-1-one] | 1000 to 10000
30 | CCCC(=O)c1ccc(NCc2c[nH]nc2-c2ccc(O)cc2)cc1 [Example 76, 1-(4-{[3-(4-Hydroxyphenyl)-1H-pyrazol-4-ylmethyl]amino}phenyl)butan-1-one] | < 1000
31 | CCCC(=O)c1ccc(NCc2c[nH]nc2C(C)(C)C)cc1 [Example 77, 1-{4-[(3-tert-Butyl-1H-pyrazol-4-ylmethyl)amino]phenyl}butan-1-one] | < 1000
32 | COc1ccccc1Oc1ccc(NCc2c[nH]nc2-c2ccc(C(F)(F)F)cc2)cc1 [Example 83, [4-(2-Methoxy-phenoxy)-phenyl]-[3-(4-trifluoromethylphenyl)-1H-pyrazol-4-ylmethyl]-amine] | < 1000
33 | COc1cc(NCc2c[nH]nc2C(C)(C)C)cc(OC)c1 [Example 116, (3-tert-Butyl-1H-pyrazol-4-ylmethyl)-(3,5-dimethoxyphenyl)-amine] | 1000 to 10000
34 | CCCC(=O)c1ccc(NCc2c[nH]nc2-c2ccc(OC)cc2)cc1 [Example 209, 1-(4-{[3-(4-Methoxy-phenyl)-1H-pyrazol-4-ylmethyl]-amino}-phenyl)-butan-1-one] | < 1000
35 | CCCC(=O)c1ccc(NCc2c[nH]nc2-c2ccccc2)cc1 [Example 210, 1-{4-[(3-Phenyl-1H-pyrazol-4-ylmethyl)-amino]-phenyl}-butan-1-one] | < 1000
36 | CCCC(=O)c1ccc(NCc2c(C)nn(C)c2C)cc1 [Example 211, 1-{4-[(1,3,5-Trimethyl-1H-pyrazol-4-ylmethyl)-amino]-phenyl}-butan-1-one] | 1000 to 10000
37 | CCCC(=O)c1ccc(NCc2c[nH]nc2-c2ccc(C)cc2)cc1 [Example 212, 1-{4-[(3-p-Tolyl-1H-pyrazol-4-ylmethyl)-amino]-phenyl}-butan-1-one] | < 1000
38 | CCCC(=O)c1ccc(NCc2c[nH]nc2-c2cc(F)cc(F)c2)cc1 [Example 213, 1-(4-{[3-(3,5-Difluorophenyl)-1H-pyrazol-4-ylmethyl]-amino}-phenyl)-butan-1-one] | < 1000
